“Also recorded” adds a separate entry of the source. Blank lines part the entries; values can stand above or below the compound they belong to.
How the values were obtained:
pUC118 = assay: Photochemical DNA cleavage by Cu(II) diazo complex, agarose gel (Example VI); format: biochemical; details: 25 μm, 20° C.; for DNA forms in thermal and photochemical control studies: 1 hour incubation or 455 nm light, lanes 3-11
Procedure: FIG. 10 illustrates DNA-cleavage of 50 μM pUC 118 plasmid DNA by bis(9-diazo-4,5-diazafluorene)copper(II) nitrate following 455 nm photolysis for 1 hour at 20° C. pursuant to 2% agarose gel electrophoresis.
FIG. 10 illustrates the DNA cleavage of 50 μM pUC118 by this compound following 455 nm photolysis for 1 hour at 20° C. (agarose gel, 2%).
Three forms of […] plasmid DNA were prepared for use in the […] assay. Form I was supercoiled plasmid. Form II was nicked plasmid. Form III was linear plasmid. The three plasmid forms were subjected to 11 lanes of varying conditions. Lane 1 pertained to the DNA forms alone. Lane 2 involved an EcoR1 digest of the DNA, which was used as a marker. In lane 3, the DNA was subjected for 1 hour to light at a wavelength of 455 nm. In lane 4, the DNA was subjected to 25 μm Cu(II) (diazafluorenone)2^2+ for 1 hour incubation. In lane 5, the DNA was subjected to 25 μm Cu(II) (diazafluorenone)2^2+ in the presence of light at a wavelength of 455 nm for 1 hour. Lane 6 subjected the DNA to 25 μm of 9-diazafluorene in the presence of light at a wavelength of 455 nm for 1 hour. In lane 7, the DNA was subjected to 25 μm 9-diazo-4,5-diazafluorene in the presence of light at a wavelength of 455 nm for 1 hour. In lane 8, the DNA was subjected to 25 μm bis(9-diazo-4,5-diazafluorene)copper(II) nitrate rapid quench. In lane 9, the DNA was subjected to 25 μm bis(9-diazo-4,5-diazafluorene)copper(II) nitrate for 1 hour incubation. In lane 10, the DNA was subjected to 25 μm bis(9-diazo-4,5-diazafluorene)copper(II) nitrate for 1 hour incubation at 37° C. In lane 11, the DNA was subjected to 25 μm bis(9-diazo-4,5-diazafluorene)copper(II) nitrate for 1 hour at a wavelength of 455 nm.

pUC 118 plasmid DNA = assay: Photoinduced cleavage of pUC 118 plasmid DNA by compound 5, agarose gel electrophoresis (Example IV); format: biochemical
Procedure: FIG. 8 illustrates the photoinduced DNA-cleavage of 30 μM/bp of pUC 118 plasmid DNA by 300 μM of compound 5 following 400 nm photolysis for 12 hours at 20° C. pursuant to 2% agarose gel electrophoresis.
Cleavage ability was determined by its effectiveness in converting circular supercoiled DNA (form I) to circular relaxed DNA (form II) and linear DNA (form III). FIG. 8 illustrates the agarose gel electrophoresis of photolysis products of 300 μM 5 in the presence of pUC 118 plasmid DNA (30 μM/bp). Solutions were irradiated for 12 hours in 1:9 DMSO:Tris buffer (20 mM, pH 7.55) at 400 nm. Photolyses were performed at 400 NM (rather than 455 NM) due to a soluatochronic blue shift in the optical absorption spectrum.

[1] = Anaerobic photolysis in acetonitrile at 345 nm and 455 nm monitored by UV/Vis spectrophotometry; format: physicochemical; details: for Photolysis reactivity of free ligand / kobs of photolysis (first order): acetonitrile; for kobs of photolysis (first order): anaerobic
Procedure: FIG. 7 depicts electronic absorption profiles of anaerobic photolyses of […] acetonitrile solutions of compound 5 at: (a) 345 nm; and (b) 455 nm.
Although the CT excited states appeared to satisfy the energy requirement, it was unknown if sufficient excited state lifetime existed to drive photodecomposition of the ligand. […] In both cases, significant photobleaching was observed, consistent with formation of Fe(II) in solution. This observation was further supported by the reemergence of color following aerial oxidation.
This can be attributed to the greater extinction coefficient at 345 nm (ε=9000 M^−1cm^−1) relative to 455 nm (ε=5450 M^−1cm^−1), and the simultaneous excitation of the LMCT and n-π* transitions of the Fe(III) compound, both of which lead to denitrogenation.
To investigate this dual state hypothesis, identical photolyses were carried out on solutions of 4 in acetonitrile.

HIV = details: human, in vivo; cited from earlier work
[2] = N2 extrusion on photolysis, headspace GC/MS; format: physicochemical; details: degassed benzonitrile under argon, average of 4 trials
Procedure: To correlate the observed reactivity with N2 extrusion, a series of wavelength dependent photolyses were performed on 800 μL solutions of 5 under argon in degassed benzonitrile. From headspace GC/MS analysis, N2 production was gauged by comparison of the N2/O2 ratios above the photolyzed samples relative to unphotolyzed controls. […] Taken together, these experiments provide compelling evidence that the overall strategy to induce radical formation from CT excited states is indeed operative.

[3] = literature values; cited from earlier work
[4] = 95° C. for several days; cited from earlier work
[5] = Thermal reactivity of Pd metalloenediynes; format: physicochemical; details: room temperature
Procedure: The thermal reactivity of the complex was as follows. […] The reaction was followed by ^31p NMR analysis. The chemical shift of the complex was −5.71 ppm while that of the free ligand was −32.1 ppm. After 11 hours, there was evidence of the complex, free ligand, and 2 other resonances at −10.6 ppm and 25.4 ppm. […] A shift downfield was expected for the cyclized product and this could help explain the resonance at 25.4 ppm. […] What may have happened is that a ligand dissociated from the metal after cyclizing (−10.6 ppm) and then it reassociated with the metal (25.5 ppm). From the crystal structure, the environment around the metal was strained as is evident in the Pd—P—C bending. Additionally, the bite-angle of the resulting cyclized product, 1,2-bis(diphenylphosphino)naphthalene, would be smaller than that which would be required for tetrahedral geometry. This dissociation/reassociation may be slow enough to be detected on the NMR timescale.
Although crystallographic structural characterization of Pd(dppeb)Cl2 is unavailable, the d^8 Pd2^+ geometry is likely square planar with P—Pd—P angles near 90° which would reduce the alkyne carbon termini distances and lower the thermal barrier to cyclization. […]

Structure (SMILES): [N-]=[N+]=C1c2cccnc2-c2ncccc21 [9-diazo-4,5-diazafluorene, reference compound]
- DNA forms in thermal and photochemical control studies (pUC118): very small and comparable amounts of the nicked form; also recorded: did not exhibit any preferential thermal or photochemical DNA cleavage

- Photolysis reactivity of free ligand ([1]; 345 nm): noticeably reduced reaction rate
- Photolysis reactivity of free ligand ([1]; 455 nm): no reactivity
Structure (SMILES): O=c1c2ccccc2nnn1O [Compound 4, 3-Hydroxy-1,2,3-benzotriazine-4(3H)-one, reference compound]
- DNA forms produced by photolysis of free ligand (pUC 118 plasmid DNA; 900 μM free ligand, 400 nm, 12 hours, lane 6): a small amount of form II

Structure (SMILES): O=[N+]([O-])[O-].O=[N+]([O-])[O-].[Cu+2].[N-]=[N+]=C1c2cccnc2-c2ncccc21.[N-]=[N+]=C1c2cccnc2-c2ncccc21 [bis(9-diazo-4,5-diazafluorene)copper(II) nitrate]
- DNA forms in thermal and photochemical control studies (pUC118): very small and comparable amounts of the nicked form
- DNA forms after photolysis (pUC118; 455 nm, 1 hour, 10 mM Tris pH 7.6, 50 μM pUC118, lane 11): predominantly nicked DNA with a moderate amount of the linear form

Structure (SMILES): Nc1ccn([C@H]2CC[C@@H](CO)O2)c(=O)n1 [ddC, 2′3′-dideoxycytidine]
- Virustatic range in most patients (HIV): 0.005-0.25 mg/kg body weight

- Increased N2 content versus unphotolyzed controls ([2]; 345 nm): 112%
- Increased N2 content versus unphotolyzed controls ([2]; 455 nm): 9.7%
- Wavelength up to which reactivity was demonstrated [1]: up to 515 nm
Structure (SMILES): O=c1c2ccccc2nnn1[O-].O=c1c2ccccc2nnn1[O-].O=c1c2ccccc2nnn1[O-].[Fe+3] [Compound 5, Fe(3-Hydroxy-1,2,3-benzotriazine-4(3H)-one)3]
- DNA forms produced by photolysis (form I supercoiled, form II nicked, form III linear) (pUC 118 plasmid DNA; 300 μM 5, pUC 118 30 μM/bp, 400 nm, 12 hours, 1:9 DMSO:Tris buffer (20 mM, pH 7.55), lane 3): a mixture of linear and nicked forms
- DNA cleavage on thermal incubation (pUC 118 plasmid DNA; similar thermal incubation without light, lane 4): no DNA cleavage
- kobs of photolysis (first order) ([1]; 345 nm): 0.093 min⁻¹
- kobs of photolysis (first order) ([1]; 455 nm): 0.004 min⁻¹

Structure (SMILES): C(#CP(c1ccccc1)c1ccccc1)c1ccccc1C#CP(c1ccccc1)c1ccccc1
- Bergman cyclization temperature reported in the literature [3]: 243 °C
- Thermal stability in the presence of a hydrogen donor [4]: stable

Structure (SMILES): C(#CP(c1ccccc1)c1ccccc1)c1ccccc1C#CP(c1ccccc1)c1ccccc1.C(#CP(c1ccccc1)c1ccccc1)c1ccccc1C#CP(c1ccccc1)c1ccccc1.[Pd] [Pd(dppeb)2]
- Thermal stability [5]: stable at room temperature

Source: patent US6828439B1, “Compounds, composition, and methods for photodynamic therapy” (Advanced Research and Technology Institute, Inc., priority 1999, dated 2004)
